From publication PMC4806436, “Disrupted ADP-ribose metabolism with nuclear Poly (ADP-ribose) accumulation leads to different cell death pathways in presence of hydrogen peroxide in procyclic Trypanosoma brucei” (Parasites & Vectors, 2016)
“Also recorded” adds a separate entry of the source. Like-named read-outs stand apart in the source and are kept apart here.

Legend:
TbPARP = TbPARP (Trypanosoma brucei brucei, UniProt Q0PW89); assay: biochemical; conditions: 5 nM TbPARP, 500 nM NAD+, 11 min at 25 °C, mean of three dose-response curves
Sequence of TbPARP (Q0PW89 entry or part of it): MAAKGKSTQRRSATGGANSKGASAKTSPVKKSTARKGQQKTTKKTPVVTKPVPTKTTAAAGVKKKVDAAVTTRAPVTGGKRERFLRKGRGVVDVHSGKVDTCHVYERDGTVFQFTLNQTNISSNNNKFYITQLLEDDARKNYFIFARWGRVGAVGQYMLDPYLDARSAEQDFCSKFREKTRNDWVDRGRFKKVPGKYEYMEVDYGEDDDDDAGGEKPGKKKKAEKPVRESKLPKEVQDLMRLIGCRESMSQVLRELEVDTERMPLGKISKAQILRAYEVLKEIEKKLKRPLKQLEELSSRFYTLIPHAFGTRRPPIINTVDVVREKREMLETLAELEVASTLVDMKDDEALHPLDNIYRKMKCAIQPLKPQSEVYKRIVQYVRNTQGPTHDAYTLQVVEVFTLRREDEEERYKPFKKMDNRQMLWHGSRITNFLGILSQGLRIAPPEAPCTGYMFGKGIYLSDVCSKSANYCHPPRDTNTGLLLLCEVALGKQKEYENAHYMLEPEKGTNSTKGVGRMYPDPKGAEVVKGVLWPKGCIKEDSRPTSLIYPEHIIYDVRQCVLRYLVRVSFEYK
Protocol: The optimal conditions for the activity of purified recombinant TbPARP, were determined by using a fluorometric activity assay. Incubation at 25 °C with shaking at 300 rpm was placed in propylene plates of 96 wells (Greiner BioOne). To terminate the reaction 2 M KOH (20 μL) and 20 % acetophenone in ethanol (20 μL) were added to each well. After incubating for 10 min at 4 °C, 90 μl of 88 % formic acid was added and incubated in an oven at 110 °C for 5 min. This reaction converts remaining NAD^+ to a fluorescent derivative. After incubation, the plate was allowed to cool down for 15 min and fluorescence was measured using excitation wavelengths of 372 nm and 444 nm for excitation and emission, respectively (Varioskan Flash 4.00.53, Thermo Scientific). Consumption of NAD^+ was detected by the decrease in fluorescence. Experiments were done in triplicates. The activity in control wells were kept under 25 % by optimizing the protein concentration and the incubation time, in order to get a robust signal without slowing down the enzyme activity.
A small set of cations was also tested in order to verify whether the enzymatic activity would depend on them. […] The final assay buffer was 100 mM Na2HPO4/NaH2PO4 pH 7, 500 μM TCEP, 1 μg/μL BSA, and 0.025 mg/mL activated DNA (Sigma Aldrich) and 500 nM NAD^+ (Sigma Aldrich).
Thirty - one compounds were tested. Dilutions from DMSO stocks were made (100 μM, 10 μM and 1 μM) and aliquots of those were used in the enzymatic reaction with 10-fold dilution. Inhibitor solutions were added in triplicates to the plate, followed by the addition of the NAD^+. Reactions were initiated by addition of TbPARP diluted in the same buffer (10 nM). The plate was incubated at 25 °C with shaking (300 rpm, Biosan PST-100 HL) for 45 min. […] To detect any potential fluorescence inherent in the compounds, control reactions were carried out separately with compound alone at 10 μM final concentration. The possible fluorescence quenching properties were controlled using wells within the experimental plate containing the compound with 500 nM NAD^+ in the assay buffer.
The IC50 value for 3-AB (Alexis Biochemicals) was also determined to be used as a reference. Briefly, reaction mix together with the inhibitors at half log dilutions were added to a 96-well plate (10 data points). Reactions were incubated for 11 min at 25 °C after initiating the reaction with the addition of 5 nM TbPARP at a final volume of 50 μL. Measurement of the remaining NAD^+ is described in section Screening of TbPARP inhibitors. All reactions were performed in triplicates and three independent dose response curves were fitted for each inhibitor. Control wells with only NAD^+ or NAD^+ and enzyme were used in the curve fitting, as detailed in our previous work.

[1] = system: Trypanosoma brucei procyclic parasites; assay: Effect of inhibitors on procyclic parasite growth (OD600, 48 h); format: cell-based
Protocol: Trypanosoma brucei procyclic parasites were grown in SDM-79 medium for 48 h until reaching a density of 5×10^6 cells/mL. Aliquots of 200 μl were distributed in 96-well plates and inhibitors were present at different final concentrations, as indicated in the figures. Nifurtimox (NFX) was used as a positive control in concentrations ranging from 0.25–25 μM. Culture density was checked by OD600 after 48 h.
In all experiments, triplicates were done for each condition tested and data significance was assessed by one-way Anova (GraphPad Prism5.03 version Software).

TcPARP = system: TcPARP; parameters: method as in PMID 23049934; conditions: read-out: potency towards TcPARP; cited from earlier work
[2] = system: PAR formation in bloodstream T. brucei; assay: In culture inhibition of PAR formation after H2O2, Dot blot, bloodstream form; format: cell-based, Trypanosoma brucei; conditions: inhibitor at 10-fold in vitro IC50 (29 nM Olaparib; 1.5 μM Rucaparib), 10 min preincubation, 250 μM H2O2
Protocol: (§1) T. brucei procyclic strain 29–13 [29] was cultured at 28 °C in SDM-79 (Bioscience) containing 10 % (v/v) FCS and 0002 % hemin. T. brucei bloodstream strain 427 90-13 [29] was cultured at 37 °C in HMI-11 (Iscore’s Modified Dulbecco’s Medium (Invitrogen), 100 mg/L sodium pyruvate, 136.1 mg/L hypoxantine, 38.7 mg/L thymidine, 28.22 mg/L bathocuproinedisulfonic acid, 181.8 mg/L L-cysteine, 3.024 mg/L sodium carbonate, 196 μM β-mercaptoethanol) containing FCS (10 % v/v). Parasite viability was analyzed by microscopy.
(§2) For in culture inhibition assays, parasites of the procyclic form of Trypanosoma brucei were grown for 48 h up to a density of 5×10^6 parasites/mL. Parasites of the bloodstream form were grown for 24 h up to a density of 5×10^5 parasites/mL. In both cases, cells were harvested and preincubated for 30 min or 10 min in PBS-Glucose 2 % with inhibitors added, after which the parasites were treated with 500 μM or 250 μM hydrogen peroxide for procyclic and bloodstream forms, respectively, for 10 min.

[3] = system: PAR formation in procyclic T. brucei; assay: In culture inhibition of PAR formation after H2O2, Dot blot, procyclic form; format: cell-based, Trypanosoma brucei; conditions: inhibitor at 10-fold in vitro IC50 (0.23 μM 4-ANI; 65 nM EB-47; 29 nM Olaparib; 1.5 μM Rucaparib), 30 min preincubation, 500 μM H2O2 10 min
Protocol: as §1, §2

[4] = system: Trypanosoma brucei bloodstream parasites; assay: Effect of inhibitors on bloodstream parasite growth (Neubauer count, 24 h); format: cell-based; conditions: Olaparib 29 nM, Rucaparib 1.5 μM, 3-AB 580 μM, Nifurtimox 2.5 μM
Protocol: Trypanosoma brucei bloodstream parasites were grown in HMI-11 medium for 24 h until reaching a density of 5×10^5 cells/mL. Aliquots of 100 μL were distributed in 96-well plates and inhibitors were added at different concentrations as indicated in the figures. After an incubation period of 24 h, the parasite number was counted with a Neubauer chamber. In all experiments, triplicates were done for each condition tested and data significance was assessed by one-way Anova (GraphPad Prism5.03 version Software).

CNCc1ccc(-c2[nH]c3cc(F)cc4c3c2CCNC4=O)cc1 [Rucaparib, 6-fluoro-2-{4-[(methylamino)methyl]phenyl}-3,10-diazatricyclo[6.4.1.0^{4,13}]trideca-1,4(13),5,7-tetraen-9-one]
IC50 (TbPARP; read-out: TbPARP IC50): 150 nM
IC50 (TbPARP; read-out: TbPARP pIC50 ± SEM (converted)): 148 nM
impact on growth rate of procyclic parasites ([1]; 15 μM (highest concentration)): visible impact on the growth rate
decrease in procyclic parasite growth ([1]; 15 μM, 48 h): 20%
IC50 (TcPARP): 25 nM
inhibition of PAR formation in culture, bloodstream form [2]: able to inhibit PAR formations in culture; also recorded: able to reduce PAR formation
inhibition of PAR formation in culture, procyclic form [3]: inhibited PAR formation in culture; also recorded: able to reduce PAR formation
effect on bloodstream parasite growth [4]: not able to significantly affect T. brucei growth or survival
